Reference: patent publication US6525021B1 (priority 1998, dated 2003)
“Also recorded” adds a separate entry of the source. Non-standard residues stand in square brackets, D forms with d. Residues, ends and D or L forms follow the SMILES beside them. *: point of attachment. X1 = CC(=O)N[C@@H]1[C@@H](O[C@@H]2O[C@H](CO)[C@H](O)[C@H](O)[C@H]2O)[C@@H](O)[C@@H](CO)O[C@@H]1*; pGlu = O=C1CC[C@@H](C(=O)O)N1

Columns and labels:
[1] = design: species or system mice; details: mouse, in vivo
[2] = molecular target: rat neurotensin type 1 receptor (rNTR1) (Rattus norvegicus, UniProt P20789); test: biochemical; format: binding
rNTR2 = rNTR2 (Rattus norvegicus, UniProt Q63384); format: cell-based
[3] = molecular target: solubilized mouse neurotensin type 3 receptor (mNTR3) (Mus musculus, UniProt Q6PHU5); test: biochemical; format: binding
[4] = molecular target: rat neurotensin type 2 receptor (rNTR2) (Rattus norvegicus, UniProt Q63384); test: biochemical; format: binding
[5] = molecular target: human neurotensin type 1 receptor (hNTR1) (Homo sapiens, UniProt P30989); test: biochemical; format: binding
rNTR1 = rNTR1 (Rattus norvegicus, UniProt P20789); test: cell-based; format: cell-based
Sequence of rNTR1 (P20789 whole entry, looked up): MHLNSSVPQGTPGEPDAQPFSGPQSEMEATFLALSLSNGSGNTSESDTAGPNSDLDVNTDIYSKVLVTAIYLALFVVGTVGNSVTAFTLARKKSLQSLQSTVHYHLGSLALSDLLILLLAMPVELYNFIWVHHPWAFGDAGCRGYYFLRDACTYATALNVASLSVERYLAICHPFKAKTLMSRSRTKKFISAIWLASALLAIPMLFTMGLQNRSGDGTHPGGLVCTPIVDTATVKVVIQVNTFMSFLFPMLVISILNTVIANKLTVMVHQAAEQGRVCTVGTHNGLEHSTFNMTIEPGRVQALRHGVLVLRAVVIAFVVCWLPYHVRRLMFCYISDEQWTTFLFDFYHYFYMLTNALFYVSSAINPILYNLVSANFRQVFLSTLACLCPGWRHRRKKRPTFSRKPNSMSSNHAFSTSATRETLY

Sequence of rNTR2 (Q63384 whole entry, looked up): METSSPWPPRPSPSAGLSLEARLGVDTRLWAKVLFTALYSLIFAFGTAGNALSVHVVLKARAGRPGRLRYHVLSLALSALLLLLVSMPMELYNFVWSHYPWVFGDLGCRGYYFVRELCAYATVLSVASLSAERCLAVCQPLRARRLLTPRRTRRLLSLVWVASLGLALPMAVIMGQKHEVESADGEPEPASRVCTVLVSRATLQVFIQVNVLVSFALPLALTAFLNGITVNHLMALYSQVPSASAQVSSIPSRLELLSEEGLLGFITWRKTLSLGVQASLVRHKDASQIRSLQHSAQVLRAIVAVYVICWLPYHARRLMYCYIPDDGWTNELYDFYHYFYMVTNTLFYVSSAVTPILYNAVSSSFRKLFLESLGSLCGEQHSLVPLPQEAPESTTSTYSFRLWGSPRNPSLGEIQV
Sequence of human neurotensin type 1 receptor (hNTR1) (P30989 whole entry, looked up): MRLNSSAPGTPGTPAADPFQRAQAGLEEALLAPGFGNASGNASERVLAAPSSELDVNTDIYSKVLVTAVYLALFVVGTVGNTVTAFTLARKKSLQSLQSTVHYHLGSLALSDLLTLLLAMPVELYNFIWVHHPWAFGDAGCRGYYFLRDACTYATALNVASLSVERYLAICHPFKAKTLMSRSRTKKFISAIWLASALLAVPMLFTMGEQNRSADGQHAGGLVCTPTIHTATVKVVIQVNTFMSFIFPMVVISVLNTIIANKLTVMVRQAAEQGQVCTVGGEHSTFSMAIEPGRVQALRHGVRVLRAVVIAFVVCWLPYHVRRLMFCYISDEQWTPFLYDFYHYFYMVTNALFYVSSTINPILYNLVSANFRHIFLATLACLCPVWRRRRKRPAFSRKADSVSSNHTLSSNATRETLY
Sequence of rat neurotensin type 2 receptor (rNTR2) (Q63384 whole entry, looked up): as the sequence (Q63384 whole entry, looked up) above
Sequence of rat neurotensin type 1 receptor (rNTR1) (P20789 whole entry, looked up): as the sequence (P20789 whole entry, looked up) above
Sequence of solubilized mouse neurotensin type 3 receptor (mNTR3) (Q6PHU5 74-825 limits assumed): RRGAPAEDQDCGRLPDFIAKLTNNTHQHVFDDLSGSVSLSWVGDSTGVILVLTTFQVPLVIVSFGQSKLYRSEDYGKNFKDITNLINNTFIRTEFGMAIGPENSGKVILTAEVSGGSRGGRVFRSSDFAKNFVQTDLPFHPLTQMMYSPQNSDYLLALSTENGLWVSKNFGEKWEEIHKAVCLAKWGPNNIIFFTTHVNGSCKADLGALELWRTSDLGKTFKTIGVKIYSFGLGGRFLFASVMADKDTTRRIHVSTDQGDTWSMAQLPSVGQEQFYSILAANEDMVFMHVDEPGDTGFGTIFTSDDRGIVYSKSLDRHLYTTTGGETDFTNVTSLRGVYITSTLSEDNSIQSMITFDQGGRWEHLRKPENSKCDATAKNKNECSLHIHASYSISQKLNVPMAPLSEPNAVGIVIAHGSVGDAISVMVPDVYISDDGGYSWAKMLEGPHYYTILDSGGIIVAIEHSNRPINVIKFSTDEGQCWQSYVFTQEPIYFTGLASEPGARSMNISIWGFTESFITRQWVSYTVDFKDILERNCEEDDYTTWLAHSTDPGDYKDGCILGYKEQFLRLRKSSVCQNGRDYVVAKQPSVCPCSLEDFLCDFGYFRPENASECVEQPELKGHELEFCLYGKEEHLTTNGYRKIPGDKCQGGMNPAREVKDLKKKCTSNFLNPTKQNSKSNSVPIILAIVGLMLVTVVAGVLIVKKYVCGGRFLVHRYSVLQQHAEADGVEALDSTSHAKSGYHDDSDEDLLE

Row | Compound | activity (onset and recovery time) compared with analog A [1] | time mice were drowsy [1] | IC50 [2] | agonist response (rNTR2) | IC50 [3] | IC50 [4] | IC50 [5] | EC50 (rNTR1) | agonistic efficacy compared with Neurotensin1-13 (rNTR1) | mode of action on CHO cells expressing the rNTR1 (rNTR1)
1 | Δ1-9-Ser10-contulakin-G containing the native glycosylation on Ser10 [analog B] | same activity | 100 min |  |  |  |  |  |  |  | 
2 | CC[C@H](C)[C@H](NC(=O)[C@H](Cc1ccc(O)cc1)NC(=O)[C@@H]1CCCN1C(=O)[C@H](CCCCN)NC(=O)[C@H](CCCCN)NC(=O)[C@@H](NC(=O)[C@H](C)NC(=O)[C@H](CC(N)=O)NC(=O)[C@H](CO)NC(=O)CNC(=O)CNC(=O)[C@H](CCC(=O)O)NC(=O)[C@H](CCC(=O)O)NC(=O)[C@H](CO)NC(=O)[C@@H]1CCC(=O)N1)[C@@H](C)O[C@H]1O[C@H](CO)[C@H](O)[C@H](O[C@@H]2O[C@H](CO)[C@H](O)[C@H](O)[C@H]2O)[C@H]1NC(C)=O)C(=O)N[C@@H](CC(C)C)C(=O)O [contulakin-G] ([pGlu]SEEGGSNAT(X1)KKPYIL-OH) |  |  | 0.524 µM | No response; also recorded: absence of any agonistic effect | 0.25 µM | 0.73 µM | 0.96 µM | 0.02 to 0.03 µM | approximately half | acted as agonists
